Test results from ChEMBL document CHEMBL6153061, “Sialyl Lewisx Glycomimetics as E- and P-Selectin Antagonists Targeting Hyperinflammation” (ACS Med Chem Lett, 2025).
The source made the active and inactive calls. No cut-off for these calls is given here.

Assays:
P-selectin = target: T1, P-selectin (Homo sapiens, UniProt P16109); test: Binding affinity to recombinant human P-selectin assessed as dissociation constant by surface plasmon resonance (SPR) analysis
T1 sequence (P16109 whole entry): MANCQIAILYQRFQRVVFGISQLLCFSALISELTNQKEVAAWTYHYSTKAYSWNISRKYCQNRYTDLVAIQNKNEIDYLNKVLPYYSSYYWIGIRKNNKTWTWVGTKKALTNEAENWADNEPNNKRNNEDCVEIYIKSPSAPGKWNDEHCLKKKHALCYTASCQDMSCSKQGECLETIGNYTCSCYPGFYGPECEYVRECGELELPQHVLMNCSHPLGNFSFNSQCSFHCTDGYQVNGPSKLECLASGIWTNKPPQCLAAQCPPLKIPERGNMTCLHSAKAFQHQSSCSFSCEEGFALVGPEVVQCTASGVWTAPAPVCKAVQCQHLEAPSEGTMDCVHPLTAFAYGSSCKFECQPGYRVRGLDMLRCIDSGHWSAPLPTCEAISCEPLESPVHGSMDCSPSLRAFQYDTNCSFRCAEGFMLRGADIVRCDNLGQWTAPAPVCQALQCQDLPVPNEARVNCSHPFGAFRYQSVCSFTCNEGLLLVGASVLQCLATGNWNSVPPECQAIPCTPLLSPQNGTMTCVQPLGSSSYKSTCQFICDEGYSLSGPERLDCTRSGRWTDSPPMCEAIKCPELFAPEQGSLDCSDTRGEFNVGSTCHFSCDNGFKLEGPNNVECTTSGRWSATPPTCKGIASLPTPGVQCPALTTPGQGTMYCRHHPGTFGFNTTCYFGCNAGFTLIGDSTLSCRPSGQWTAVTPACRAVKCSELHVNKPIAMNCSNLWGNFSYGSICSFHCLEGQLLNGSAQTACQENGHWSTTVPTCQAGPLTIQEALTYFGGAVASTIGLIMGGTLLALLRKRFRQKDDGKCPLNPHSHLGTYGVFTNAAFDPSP

E-selectin = target: T2, E-selectin (Homo sapiens, UniProt P16581); test: Binding affinity to recombinant human E-selectin assessed as dissociation constant by surface plasmon resonance (SPR) analysis
T2 sequence (P16581 whole entry): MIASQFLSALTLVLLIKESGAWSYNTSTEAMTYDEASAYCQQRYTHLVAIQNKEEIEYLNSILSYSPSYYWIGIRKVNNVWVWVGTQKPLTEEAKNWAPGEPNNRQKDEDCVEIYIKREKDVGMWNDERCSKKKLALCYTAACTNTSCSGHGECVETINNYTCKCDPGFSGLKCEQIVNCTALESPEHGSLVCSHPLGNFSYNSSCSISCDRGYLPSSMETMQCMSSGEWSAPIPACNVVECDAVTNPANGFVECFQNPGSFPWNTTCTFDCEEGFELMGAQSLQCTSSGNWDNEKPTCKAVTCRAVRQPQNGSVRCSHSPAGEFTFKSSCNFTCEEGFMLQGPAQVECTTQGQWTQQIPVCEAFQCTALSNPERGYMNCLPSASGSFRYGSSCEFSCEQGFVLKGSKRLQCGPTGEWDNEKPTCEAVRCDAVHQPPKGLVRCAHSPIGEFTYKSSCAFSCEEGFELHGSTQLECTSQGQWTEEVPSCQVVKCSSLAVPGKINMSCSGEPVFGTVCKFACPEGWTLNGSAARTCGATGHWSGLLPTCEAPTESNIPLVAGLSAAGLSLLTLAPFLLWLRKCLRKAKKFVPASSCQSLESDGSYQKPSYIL

Mus musculus [1] = test: (§1) Immunosuppressive effect in thioglycolate-induced hyper-inflammatory C57BL/6 wild type mouse model assessed as effect on PSGL-1+ level in […] peritoneal cavity at 2.5 micromol/kg,iv pre-administered 10 min followed by thioglycolate administration measured after 10 min by flow cytometry based in vivo cell recruitment assay; assay type: functional, organism-based; settings: dose 2.5 µmol/kg, time 20.0 min
Mus musculus [2] = test: (§2) Immunosuppressive effect in thioglycolate-induced hyper-inflammatory C57BL/6 wild type mouse model assessed as reduction in macrophage/monocyte level in […] peritoneal cavity at 2.5 micromol/kg, iv administered after 24 hrs of thioglycolate injection in peritoneal cavity followed by after 2 hrs treated at 2.5 micromol/kg, ip and followed by after 6 hrs treated at 2.5 micromol/kg, ip and followed by after 15 hrs treated at 2.5 micromol/kg, ip and measured after 3 hrs by flow cytometry based in vivo cell recruitment assay; assay type: functional, organism-based; settings: time 26.0 hrs
Mus musculus [3] = test: (§3) Immunosuppressive effect in thioglycolate-induced hyper-inflammatory C57BL/6 wild type mouse model assessed as reduction in neutrophil level in […] peritoneal cavity at 2.5 micromol/kg, iv pre-administered for 10 min followed by thioglycolate administration for 10 min and further incubated with compound for 1 hr 40 min by flow cytometry based in vivo cell recruitment assay; assay type: functional, organism-based; settings: dose 2.5 µmol/kg, time 2.0 hrs
Mus musculus [4] = test: Immunosuppressive activity in thioglycolate induced hyper-inflammation in C57BL/6 wild type mouse model assessed as reduction in macrophages/monocytes levels at 2 micromol/kg, iv pre-administered for 10 min followed by thioglycolate administration for 10 min and further incubated with compound for 1 hr 40 min by flow cytometry in vivo cell recruitment assay; assay type: functional, organism-based; settings: dose 2.0 µmol/kg, time 2.0 hrs
Mus musculus [5] = test: as §1, with “CD11b+” for “PSGL-1+”, “micromol/kg, iv” for “micromol/kg,iv”; assay type: functional, organism-based; settings: dose 2.5 µmol/kg, time 20.0 min
Mus musculus [6] = test: as §3, with “thioglycolate induced” for “thioglycolate-induced”, “PSGL-1 positive cell” for “neutrophil”; assay type: functional, organism-based; settings: dose 2.5 µmol/kg, time 2.0 hrs
Mus musculus [7] = test: Immunosuppressive activity in thioglycolate induced hyper-inflammatory C57BL/6 wild type mouse model assessed as effect on neutrophil levels at 2 micromol/kg, iv pre-administered 10 min followed by thioglycolate administration measured after 10 min by flow cytometry analysis; assay type: functional, organism-based; settings: dose 2.0 µmol/kg, time 20.0 min
Mus musculus [8] = test: as §2, with “CD11b+” for “macrophage/monocyte”; assay type: functional, organism-based; settings: time 26.0 hrs
Mus musculus [9] = test: as §1, with “macrophage/monocytes” for “PSGL-1+”, “micromol/kg, iv” for “micromol/kg,iv”; assay type: functional, organism-based; settings: dose 2.5 µmol/kg, time 20.0 min
Mus musculus [10] = test: as §2, with “PSGL-1+” for “macrophage/monocyte”; assay type: functional, organism-based; settings: time 26.0 hrs
Mus musculus [11] = test: as §2, with “neutrophil” for “macrophage/monocyte”; assay type: functional, organism-based; settings: time 26.0 hrs
Mus musculus [12] = test: as §3, with “thioglycolate induced” for “thioglycolate-induced”, “CD11b+” for “neutrophil”, “micromol/kg,iv” for “micromol/kg, iv”, “cytometry” for “cytometry based”; assay type: functional, organism-based; settings: dose 2.5 µmol/kg, time 2.0 hrs
Mus musculus [13] = test: Immunosuppressive effect in thioglycolate-induced hyper-inflammatory C57BL/6 wild type mouse model assessed as effect on neutrophil level in […] peritoneal cavity at 2.5 micromol/kg, iv measured after 2 hrs by flow cytometry based in vivo cell recruitment assay; assay type: functional, organism-based; settings: dose 2.5 µmol/kg

Kd (P-selectin) [nM]	Kd (E-selectin) [nM]	SMILES	Activity (Mus musculus [1])	Activity (Mus musculus [2])	Activity (Mus musculus [3])	Activity (Mus musculus [4])	Activity (Mus musculus [5])	Activity (Mus musculus [6])	Activity (Mus musculus [7])	Activity (Mus musculus [8])	Activity (Mus musculus [9])	Activity (Mus musculus [10])	Activity (Mus musculus [11])	Activity (Mus musculus [12])	Activity (Mus musculus [13])
1000	1000	CC(C)OC(=O)[C@H](O[C@@H]1O[C@@H](C)[C@@H](O)[C@@H](O)[C@@H]1O)[C@@H](O[C@@H]1O[C@H](CO)[C@H](O)[C@H](O[C@H](Cc2ccccc2)C(=O)O)[C@H]1OC(=O)c1ccccc1)C(=O)OC(C)C	–	–	–	–	–	–	–	–	–	–	–	–	–
–	–	CC(C)OC(=O)[C@H](O[C@@H]1O[C@@H](C)[C@@H](O)[C@@H](O)[C@@H]1O)[C@@H](O[C@@H]1O[C@H](COC(=O)c2ccccc2)[C@@]2(O)CC[C@@H](c3nnn[nH]3)O[C@@H]2[C@H]1OC(=O)c1ccccc1)C(=O)OC(C)C	inactive	Active	Active	Active	inactive	Active	inactive	Active	inactive	Active	Active	Active	–
–	–	CC(C)OC(=O)[C@H](O[C@@H]1O[C@@H](C)[C@@H](O)[C@@H](O)[C@@H]1O)[C@@H](O[C@@H]1O[C@H](COC(=O)c2ccccc2)[C@@]2(O)CC[C@H](C(=O)O)O[C@H]2[C@H]1OC(=O)c1ccccc1)C(=O)OC(C)C	–	–	–	–	–	–	–	–	–	–	–	–	inactive
–	–	CC(=O)N[C@@H]1[C@@H](O[C@@H]2O[C@@H](C)[C@@H](O)[C@@H](O)[C@@H]2O)[C@H](O[C@@H]2O[C@H](CO)[C@H](O)[C@H](O[C@]3(C(=O)O)C[C@H](O)[C@@H](NC(C)=O)[C@H]([C@H](O)[C@H](O)CO)O3)[C@H]2O)[C@@H](CO)O[C@H]1O	–	–	–	–	–	–	–	–	–	–	–	–	inactive
–	–	CC(C)OC(=O)[C@H](O[C@@H]1O[C@@H](C)[C@@H](O)[C@@H](O)[C@@H]1O)[C@@H](O[C@@H]1O[C@H](CO)[C@@]2(O)CC[C@@H](c3nnn[nH]3)O[C@@H]2[C@H]1OC(=O)c1ccccc1)C(=O)OC(C)C	inactive	Active	Active	Active	inactive	–	inactive	Active	inactive	Active	Active	Active	–
–	–	CC(C)OC(=O)[C@H](O[C@@H]1O[C@@H](C)[C@@H](O)[C@@H](O)[C@@H]1O)[C@@H](O[C@@H]1O[C@H](COC(=O)c2ccccc2)[C@@]2(O)CC[C@@H](C(=O)O)O[C@H]2[C@H]1OC(=O)c1ccccc1)C(=O)OC(C)C	inactive	Active	Active	Active	inactive	–	inactive	Active	inactive	Active	Active	Active	Active; Lowering Neutrophil Levels
